# In ChEMBL document CHEMBL1201862, “PubChem BioAssay data set” (2004):
#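 Briefly, cells in 96-well plates were exposed to five compound concentrations for 48 h, and endpoints were estimated by linear interpolation. Abbreviation: GI50, concentration required for 50% inhibition of growth.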 The source made the active and inactive calls. No stated cut-off is given here; in the data, active = GI50 up to about 1.1 µM and inactive = higher.
# Key:
# Test in all cases: DTP human tumour cell line panel, 48 h
# [1] = tested on: ACHN
# [2] = tested on: KM12
# [3] = tested on: A498
# [4] = tested on: OVCAR-4
# [5] = tested on: PC-3
# [6] = tested on: SN12C
# [7] = tested on: OVCAR-3
# [8] = tested on: NCI-H23
# [9] = tested on: RXF 393
# [10] = tested on: HCT-116
# [11] = tested on: HL-60
# [12] = tested on: M14
# [13] = tested on: MDA-MB-435
# [14] = tested on: NCI-H460
# [15] = tested on: A549
# [16] = tested on: SF-295
# [17] = tested on: RPMI-8226
# [18] = tested on: NCI-H226
# [19] = tested on: SK-MEL-2
# [20] = tested on: SW-620
structure (smiles),measurement,setting,value
CCCCCCCCCCCCCC(=O)CBr,GI50,[1],15 µM (inactive)
same,GI50,[2],12.1 µM (inactive)
same,GI50,[3],17.4 µM (inactive)
same,GI50,[4],14.2 µM (inactive)
same,GI50,[5],3.62 µM (inactive)
same,GI50,[6],16.6 µM (inactive)
same,GI50,[7],18.3 µM (inactive)
same,GI50,[8],9.77 µM (inactive)
same,GI50,[9],3.3 µM (inactive)
same,GI50,[10],12.3 µM (inactive)
same,GI50,[11],1.03 µM (active)
same,GI50,[12],10.8 µM (inactive)
same,GI50,[13],16.7 µM (inactive)
same,GI50,[14],18 µM (inactive)
same,GI50,[15],22.5 µM (inactive)
same,GI50,[16],15.4 µM (inactive)
same,GI50,[17],1.47 µM (inactive)
same,GI50,[18],17.4 µM (inactive)
same,GI50,[19],11.5 µM (inactive)
same,GI50,[20],12 µM (inactive)
